From ChEMBL document CHEMBL5352441, “Modulation of FLT3-ITD and CDK9 in acute myeloid leukaemia cells by novel proteolysis targeting chimera (PROTAC)” (2022)
Active and inactive are the calls of the source. No cut-off for these calls is given here.

Tests used:
[1] = test system: MOLM-13; experiment: Antiproliferative activity against human MOLM-13 cells harboring FLT3-ITD mutation assessed as cell growth inhibition incubated for 72 hrs by resazurin dye based fluorescence analysis; type: functional
[2] = test system: THP-1; experiment: Antiproliferative activity against human THP-1 cells assessed as cell growth inhibition incubated for 72 hrs by resazurin dye based fluorescence analysis; type: functional
[3] = test system: Kasumi 1; experiment: Antiproliferative activity against human Kasumi 1 cells assessed as cell growth inhibition incubated for 72 hrs by resazurin dye based fluorescence analysis; type: functional
[4] = test system: CCRF-CEM; experiment: Antiproliferative activity against human CEM cells assessed as cell growth inhibition incubated for 72 hrs by resazurin dye based fluorescence analysis; type: functional
[5] = target: Receptor-type tyrosine-protein kinase FLT3 (Homo sapiens) (UniProt P36888); experiment: Inhibition of human FLT3 assessed as residual activity at 100 nM relative to control
Receptor-type tyrosine-protein kinase FLT3 (Homo sapiens), sequence (P36888 whole entry): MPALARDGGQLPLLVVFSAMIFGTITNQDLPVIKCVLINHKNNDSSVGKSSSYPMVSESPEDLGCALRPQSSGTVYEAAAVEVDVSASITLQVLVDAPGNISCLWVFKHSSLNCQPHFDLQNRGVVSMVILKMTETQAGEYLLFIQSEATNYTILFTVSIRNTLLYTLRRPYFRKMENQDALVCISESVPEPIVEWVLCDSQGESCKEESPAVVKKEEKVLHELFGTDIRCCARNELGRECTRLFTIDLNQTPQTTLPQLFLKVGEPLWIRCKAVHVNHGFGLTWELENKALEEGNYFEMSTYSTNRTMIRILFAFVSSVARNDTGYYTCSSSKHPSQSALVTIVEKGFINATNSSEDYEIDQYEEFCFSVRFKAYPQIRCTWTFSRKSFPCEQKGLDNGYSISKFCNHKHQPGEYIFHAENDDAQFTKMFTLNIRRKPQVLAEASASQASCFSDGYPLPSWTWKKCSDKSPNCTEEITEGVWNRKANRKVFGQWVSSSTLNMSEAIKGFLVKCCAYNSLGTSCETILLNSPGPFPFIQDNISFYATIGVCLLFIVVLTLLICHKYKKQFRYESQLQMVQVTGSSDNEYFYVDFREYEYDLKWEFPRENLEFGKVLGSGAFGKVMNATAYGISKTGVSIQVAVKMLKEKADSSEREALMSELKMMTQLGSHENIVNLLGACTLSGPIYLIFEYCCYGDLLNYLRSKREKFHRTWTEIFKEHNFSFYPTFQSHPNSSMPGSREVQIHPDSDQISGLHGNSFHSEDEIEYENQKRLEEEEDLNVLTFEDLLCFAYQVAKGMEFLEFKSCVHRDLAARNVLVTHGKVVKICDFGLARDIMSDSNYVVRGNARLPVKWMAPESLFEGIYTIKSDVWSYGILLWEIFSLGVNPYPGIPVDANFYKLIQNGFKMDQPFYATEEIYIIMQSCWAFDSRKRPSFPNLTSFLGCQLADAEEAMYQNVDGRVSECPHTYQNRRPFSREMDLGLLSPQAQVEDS

[6] = target: CDK9/cyclin T1 (Homo sapiens) (UniProt O60563+P50750); experiment: Inhibition of human CDK9/Cyclin T1 assessed as residual activity at 100 nM relative to control; type: protein-complex assay
[7] = test system: Receptor-type tyrosine-protein kinase FLT3 (Homo sapiens), P36888 [UNDEFINED MUTATION]; experiment: Inhibition of FLT3 in human MV4-11 cells harboring FLT3-ITD mutation assessed as reduction in STAT5 phosphorylation at Y694 residue at 0.004 to 2.5 uM incubated for 16 hrs by immunoblot analysis; type: cell-based; conditions: dose 0.004-2.5 µM
Receptor-type tyrosine-protein kinase FLT3 (Homo sapiens), P36888 [UNDEFINED MUTATION], sequence (P36888 whole entry, looked up, change not shown): as the sequence (P36888 whole entry) above

[8] = test system: MV4-11; experiment: Induction of apoptosis in CRBN-deficient human MV4-11 cells assessed as activation of caspase 3 at 0.004 to 25 uM incubated for 16 hrs in presence of Ac-DEVD-AMC by fluorescence microplate reader analysis; type: functional, cell-based; conditions: dose 0.004-25 µM
[9] = test system: MV4-11; experiment: Induction of cell cycle arrest in human MV4-11 cells assessed as accumulation of cells at subG1 phase at 0.004 uM incubated for 16 hrs by PI staining based flow cytometry analysis (reference value: 10.51%); type: functional
[10] = test system: MV4-11; experiment: Induction of cell cycle arrest in human MV4-11 cells assessed as accumulation of cells at G1 phase at 0.1 uM incubated for 16 hrs by PI staining based flow cytometry analysis (reference value: 62.97%); type: functional
[11] = test system: MV4-11; experiment: Induction of cell cycle arrest in human MV4-11 cells assessed as accumulation of cells at S phase at 0.1 uM incubated for 16 hrs by PI staining based flow cytometry analysis (reference value: 26.16%); type: functional
[12] = test system: MV4-11; experiment: Induction of cell cycle arrest in human MV4-11 cells assessed as accumulation of cells at S phase at 0.5 uM incubated for 16 hrs by PI staining based flow cytometry analysis (reference value: 26.16%); type: functional
[13] = test system: MV4-11; experiment: Induction of cell cycle arrest in human MV4-11 cells assessed as accumulation of cells at G2/M phase at 0.5 uM incubated for 16 hrs by PI staining based flow cytometry analysis (reference value: 10.86%); type: functional
[14] = test system: MV4-11; experiment: Induction of cell cycle arrest in human MV4-11 cells assessed as accumulation of cells at subG1 phase at 0.5 uM incubated for 16 hrs by PI staining based flow cytometry analysis (reference value: 10.51%); type: functional
[15] = test system: MV4-11; experiment: Induction of cell cycle arrest in human MV4-11 cells assessed as accumulation of cells at G2/M phase at 2.5 uM incubated for 16 hrs by PI staining based flow cytometry analysis (reference value: 10.86%); type: functional
[16] = test system: MV4-11; experiment: Induction of cell cycle arrest in CRBN-deficient human MV4-11 cells assessed as accumulation of cells at S phase at 0.004 uM incubated for 16 hrs by PI staining based flow cytometry analysis (reference value: 36.91%); type: functional
[17] = test system: MV4-11; experiment: Induction of cell cycle arrest in CRBN-deficient human MV4-11 cells assessed as accumulation of cells at G2/M phase at 0.004 uM incubated for 16 hrs by PI staining based flow cytometry analysis (reference value: 9.34%); type: functional
[18] = test system: MV4-11; experiment: Induction of cell cycle arrest in CRBN-deficient human MV4-11 cells assessed as accumulation of cells at sub-G1 phase at 0.004 uM incubated for 16 hrs by PI staining based flow cytometry analysis (reference value: 12.52%); type: functional
[19] = test system: MV4-11; experiment: Induction of cell cycle arrest in CRBN-deficient human MV4-11 cells assessed as accumulation of cells at G1 phase at 0.02 uM incubated for 16 hrs by PI staining based flow cytometry analysis (reference value: 54.05%); type: functional
[20] = test system: MV4-11; experiment: Induction of cell cycle arrest in CRBN-deficient human MV4-11 cells assessed as accumulation of cells at G2/M phase at 0.1 uM incubated for 16 hrs by PI staining based flow cytometry analysis (reference value: 9.34%); type: functional
[21] = test system: MV4-11; experiment: Induction of cell cycle arrest in CRBN-deficient human MV4-11 cells assessed as accumulation of cells at G1 phase at 0.5 uM incubated for 16 hrs by PI staining based flow cytometry analysis (reference value: 54.05%); type: functional
[22] = test system: MV4-11; experiment: Induction of cell cycle arrest in CRBN-deficient human MV4-11 cells assessed as accumulation of cells at S phase at 0.5 uM incubated for 16 hrs by PI staining based flow cytometry analysis (reference value: 36.91%); type: functional
[23] = test system: MV4-11; experiment: Induction of cell cycle arrest in CRBN-deficient human MV4-11 cells assessed as accumulation of cells at G2/M phase at 0.5 uM incubated for 16 hrs by PI staining based flow cytometry analysis (reference value: 9.34%); type: functional
[24] = test system: MV4-11; experiment: Induction of cell cycle arrest in CRBN-deficient human MV4-11 cells assessed as accumulation of cells at G1 phase at 2.5 uM incubated for 16 hrs by PI staining based flow cytometry analysis (reference value: 54.05%); type: functional
[25] = test system: MV4-11; experiment: Downregulation of MEISI gene expression in human MV4-11 cells incubated for 4 hrs by qRT-PCR analysis; type: functional, cell-based; conditions: dose 0.004-2.5 µM
[26] = test system: MV4-11; experiment: Downregulation of Bcl-2 gene expression in human MV4-11 cells incubated for 4 hrs by qRT-PCR analysis; type: functional, cell-based; conditions: dose 0.004-2.5 µM
[27] = test system: MV4-11; experiment: Downregulation of Myc gene expression in human MV4-11 cells incubated for 4 hrs by qRT-PCR analysis; type: functional, cell-based; conditions: dose 0.004-2.5 µM
[28] = test system: MV4-11; experiment: Downregulation of Myb gene expression in human MV4-11 cells incubated for 4 hrs by qRT-PCR analysis; type: functional, cell-based; conditions: dose 0.004-2.5 µM
[29] = target: Receptor-type tyrosine-protein kinase FLT3 (Homo sapiens) (UniProt P36888); experiment: Inhibition of FLT3 signalling pathway in human MV4-11 cells assessed as reduction in STAT5 phosphorylation at Y694 residues at 0.1 to 0.5 uM preincubated for 90 mins with 4-hydroxythalidomide followed by compound addition and further incubated for 16 hrs by immunoblot analysis; type: cell-based; conditions: dose 0.1-0.5 µM
[30] = target: T1, Protein cereblon/Cyclin-dependent kinase 9 (Homo sapiens) (UniProt P50750+Q96SW2); experiment: PROTAC activity at CRBN/CDK9 in human MV4-11 cells at 0.1 to 0.5 uM preincubated for 90 mins with 4-hydroxythalidomide followed by compound addition and further incubated for 16 hrs by immunoblot analysis; type: cell-based; conditions: dose 0.1-0.5 µM
T1 sequence (P50750 whole entry, looked up): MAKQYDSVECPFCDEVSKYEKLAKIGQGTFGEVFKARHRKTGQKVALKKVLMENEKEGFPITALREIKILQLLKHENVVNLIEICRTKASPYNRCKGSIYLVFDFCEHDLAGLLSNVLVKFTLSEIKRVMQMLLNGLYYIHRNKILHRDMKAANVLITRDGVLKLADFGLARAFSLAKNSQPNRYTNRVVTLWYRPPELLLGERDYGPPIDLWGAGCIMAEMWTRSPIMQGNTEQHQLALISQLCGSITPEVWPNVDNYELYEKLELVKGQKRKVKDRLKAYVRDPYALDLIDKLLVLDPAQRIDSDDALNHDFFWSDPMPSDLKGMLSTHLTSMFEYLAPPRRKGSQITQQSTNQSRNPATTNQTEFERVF
T1 sequence (Q96SW2 whole entry, looked up): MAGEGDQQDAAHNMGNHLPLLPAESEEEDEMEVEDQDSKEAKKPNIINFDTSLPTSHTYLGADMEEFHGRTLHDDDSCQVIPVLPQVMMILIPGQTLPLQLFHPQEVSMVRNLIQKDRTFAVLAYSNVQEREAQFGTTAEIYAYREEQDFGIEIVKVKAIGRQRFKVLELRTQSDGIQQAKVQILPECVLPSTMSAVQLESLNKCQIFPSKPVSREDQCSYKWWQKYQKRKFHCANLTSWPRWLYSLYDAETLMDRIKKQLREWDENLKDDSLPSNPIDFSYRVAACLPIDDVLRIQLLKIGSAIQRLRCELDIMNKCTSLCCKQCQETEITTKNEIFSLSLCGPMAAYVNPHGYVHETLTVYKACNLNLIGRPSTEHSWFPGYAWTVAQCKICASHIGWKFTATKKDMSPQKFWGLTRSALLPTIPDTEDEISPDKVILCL

[31] = target: T1, Protein cereblon/Cyclin-dependent kinase 9 (Homo sapiens); experiment: PROTAC activity at CRBN/CDK9 in human MV4-11 cells at 0.1 to 0.5 uM preincubated for 90 mins with MG132 followed by compound addition and further incubated for 16 hrs by immunoblot analysis; type: cell-based; conditions: dose 0.1-0.5 µM

## NC1CCC(Nc2nc(Nc3ccc(N4CCN(CCOCCOCCNC(=O)CNc5cccc6c5C(=O)N(C5CCC(=O)NC5=O)C6=O)CC4)cc3)c3ncn(C4CCCC4)c3n2)CC1 (stereo unspecified)
[1]
  GI50: 0.042 µM
[2]
  GI50: 9.99 µM
[3]
  GI50: > 10 µM
[4]
  GI50: > 10 µM
[5]
  Activity: 2%
[6]
  Activity: 8%
[7]
  inhibition: Active
[8]
  Activity: inactive
[9]
  Activity: 11.53%
[10]
  Activity: 89.61%
[11]
  Activity: 6.42%
[12]
  Activity: 18.55%
[13]
  Activity: 6.85%
[14]
  Activity: 58.62%
[15]
  Activity: 7.79%
[16]
  Activity: 28.88%
[17]
  Activity: 8.04%
[18]
  Activity: 12.68%
[19]
  Activity: 76.96%
[20]
  Activity: 3.38%
[21]
  Activity: 90.95%
[22]
  Activity: 5.13%
[23]
  Activity: 3.91%
[24]
  Activity: 89.4%
[25]
  Activity: Dose-Dependent Effect
[26]
  Activity: Dose-Dependent Effect
[27]
  Activity: Dose-Dependent Effect
[28]
  Activity: Dose-Dependent Effect
[29]
  inhibition: Active
[30]
  Activity: inactive
[31]
  Activity: inactive
